According to patent US20230346827A1 (priority 2020, published 2023):
Marks after values point to notes of the source that are not given here.

Legend:
[1] = tested on: human PBMC; assay: Stimulated cytokine release from human PBMC (5-plex Luminex: IFNγ, IL-8, TNFα, IL-1β, IL-10); type: cell-based
Procedure: Example 9 investigated the ability of LMW-DS to modify the secretion of IL-6 from human PBMC arising from the use of various stimuli. The present study performed a broader analysis of the cell culture supernatants arising from Example 9. Thus, peripheral blood mononuclear cells (PBMC) were isolated from healthy donors through Ficoll-Paque PLUS density centrifugation. The PBMC were cultured at 2×10^5 cells/well in the absence (unstimulated PBS vehicle controls) or presence of stimulation (LPS, peptidoglycan, pokeweed mitogen, PHA-L, CpG + IL-15, or Cytostim) in the absence (vehicle) or presence of LMW-DS (Tikomed AB, Viken, Sweden, WO 2016/076780; three concentrations; top concentration 600 µg/ml, 200 µg/ml and 60 µg/ml) for 24 hours at 37° C., 5% CO2.
Accordingly, the treatments were as follows for each PBMC donor: • i. Vehicle • ii. Simulation • iii. Stimulation + LMW-DS (60 µg/ml) • iv. Stimulation + LMW-DS (200 µg/ml) • v. Stimulation + LMW-DS (600 µg/ml) with each assessed in triplicate such that the total numbers of samples were: • 1. LPS; 165 samples (from 11 donors) • 2. Peptidoglycan from B. subtilis; 90 samples (from 6 donors) • 3. PHA-L; 90 samples (from 6 donors) • 4. 0.2 µM CpG + IL-15; 90 samples (from 6 donors) • 5. 1.0 µM CpG + IL-15; 90 samples (from 6 donors) • 6. Pokeweed mitogen; 90 samples (from 6 donors) • 7. 10 µl/ml Cytostim; 90 samples (from 6 donors) • 8. 30 µl/ml Cytostim; 90 samples (from 6 donors)
Following treatment, cell culture supernatants were removed, centrifuged and stored at -20° C. before thawing for multiplex analysis of various cytokines using the 5-plex human magnetic Luminex assay from R&D systems (Cat. No. LXSAHM-05). Luminex analysis was carried out exactly following manufacturer’s protocols.

[2] = tested on: rats subjected to sTBI; assay: sTBI rats, LMW-DS 15 mg/kg s.c.: HPLC of brain free amino acids (Example 3); type: in vivo, rat
[3] = tested on: SARS-CoV-2; settings: incubation of SARS-CoV-2 with exogenous LMW-DS; cited from earlier work
[4] = LPS, highest concentration of LMW-DS
[5] = Acute phase 1: drug 30 min, sacrifice 2 d post-TBI
[6] = Acute phase 2: drug 30 min, sacrifice 7 d post-TBI
[7] = Chronic phase: drug 3 d, sacrifice 7 d post-TBI

## sodium salt of dextran sulfate [LMW-DS]
[1]; CpG + IL-15
  IL-8 secretion response: little impact
[1]; Cytostim
  IL-10 secretion: concentration dependent large reduction
  secretion of IFNγ, IL-1β, IL-8, TNFα: small reductions
[1]; LPS, LMW-DS 60-600 µg/ml
  IFNγ secretion: concentration dependent but small reduction
  IL-10 secretion: concentration dependent but small reduction
[1]; [4]
  IL-1β secretion: modest reduction
  IL-8 secretion: modest reduction
  TNFα secretion: modest reduction
[1]; PHA-L
  IFNγ release: small decreases
  IL-8 release: small decreases
  IL-10 secretion: large, concentration dependent decrease
  TNFα release: small decreases
[1]; peptidoglycan
  IL-1β secretion: increases
  TNFα secretion: increases
[1]; peptidoglycan, LMW-DS up to 600 µg/ml
  general reduction in cytokine release: little evidence
[1]; pokeweed mitogen
  IL-10 secretion: concentration-dependent decrease
  secretion of IFNγ, IL-1β, IL-8, TNFα: not impacted generally
[2]; [5]
  ALA: 0.50±0.12^a µmol/g (w.w.)
  ARG: 0.13±0.02^b,d µmol/g (w.w.)
  ASN: 0.12±0.02^i µmol/g (w.w.)
  ASP: 2.40±0.56^d,i µmol/g (w.w.)
  CITR: 0.018 ± 0.004 µmol/g (w.w.)
  GABA: 1.43±0.25^a µmol/g (w.w.)
  GLN: 4.78±1.09^a µmol/g (w.w.)
  GLU: 9.81±1.66^i µmol/g (w.w.)
  GLY: 0.83±0.25^a,c µmol/g (w.w.)
  HIS: 0.068±0.015^b µmol/g (w.w.)
  L-Cystat: 0.185±0.031^b,c,i µmol/g (w.w.)
  MET: 0.016±0.005^d,j µmol/g (w.w.)
  SAH: 0.033±0.008^b,c,j µmol/g (w.w.)
  SER: 0.88±0.25^a µmol/g (w.w.)
  TAU: 4.86±00.85^b µmol/g (w.w.)
  THR: 0.92±0.29^a µmol/g (w.w.)
  TYR: 0.15 ± 0.03 µmol/g (w.w.)
  VAL: 0.042 ± 0.011 µmol/g (w.w.)
[2]; [6]
  ALA: 0.52±0.24^a,e µmol/g (w.w.)
  ARG: 0.16 ± 0.03 µmol/g (w.w.)
  ASN: 0.13±0.03^i µmol/g (w.w.)
  ASP: 2.94±0.98^f,j µmol/g (w.w.)
  CITR: 0.018 ± 0.008 µmol/g (w.w.)
  GABA: 1.60±0.24^a µmol/g (w.w.)
  GLN: 3.66 ± 0.41 µmol/g (w.w.)
  GLU: 9.93±1.56^e,i µmol/g (w.w.)
  GLY: 0.71±0.16^f,i µmol/g (w.w.)
  HIS: 0.055 ± 0.019 µmol/g (w.w.)
  L-Cystat: 0.173±0.038^b,f,i µmol/g (w.w.)
  MET: 0.022±0.006^b,e,i µmol/g (w.w.)
  SAH: 0.026±0.010^f,i µmol/g (w.w.)
  SER: 0.71±0.28^b µmol/g (w.w.)
  TAU: 3.80 ± 1.19 µmol/g (w.w.)
  THR: 0.66 ± 0.23 µmol/g (w.w.)
  TYR: 0.172±0.046^b,f µmol/g (w.w.)
  VAL: 0.057 ± 0.017 µmol/g (w.w.)
[2]; [7]
  ALA: 0.57±0.28^a,e µmol/g (w.w.)
  ARG: 0.14 ± 0.02 µmol/g (w.w.)
  ASN: 0.18±0.02^a µmol/g (w.w.)
  ASP: 4.46±0.70^a,f µmol/g (w.w.)
  CITR: 0.020 ± 0.006 µmol/g (w.w.)
  GABA: 1.85±0.65^a µmol/g (w.w.)
  GLN: 3.98 ± 0.34 µmol/g (w.w.)
  GLU: 13.58±1.28^a µmol/g (w.w.)
  GLY: 1.05±0.13^a,f µmol/g (w.w.)
  HIS: 0.047 ± 0.021 µmol/g (w.w.)
  L-Cystat: 0.26±0.05^a,f µmol/g (w.w.)
  MET: 0.009±0.004^b µmol/g (w.w.)
  SAH: 0.050±0.013^a µmol/g (w.w.)
  SER: 0.93±0.27^a,e µmol/g (w.w.)
  TAU: 4.49±0.43^a µmol/g (w.w.)
  THR: 0.75±0.24^a,e µmol/g (w.w.)
  TYR: 0.21±0.05^f µmol/g (w.w.)
  VAL: 0.040±0.016^b µmol/g (w.w.)
[2]; LMW-DS injected at 3 days after sTBI
  glutamate excitotoxicity marker: no efficacy
[2]; drug administered early post-injury (30 min following sTBI)
  increase in glutamate (GLU) induced by sTBI: remarkable inhibition
[3]
  SARS-CoV-2 attachment to human epithelial cell lines: reduces attachment
